The record followed here is publication PMC3894558, “Chemical signatures and new drug targets for gametocytocidal drug development” (Scientific Reports, 2014).

A word on the IC50: it is the concentration that gives 50% inhibition.

This assay relates to P. falciparum 3D7 gametocytes. Description: alamarBlue gametocyte viability assay, strain 3D7. In kind it is cell-based, Plasmodium falciparum. To be noted: for Max Resp: DMSO set at 0%, 100 nM epoxomicin set at -100%; for Curve Class / IC50: stages III-V 3D7 gametocytes; for IC50: 11 concentrations, 1:3 dilution. On the technique in general: Resazurin is reduced to fluorescent resorufin, in cell work by metabolically active cells.

Like-named read-outs stand apart in the source and are kept apart here.

As for `Cc1cc(Nc2ccc(OCc3ccccc3)cc2)nc2cc(O)ccc12` [MMV007181], where the note is “Malaria Box”, the “Max Resp” value is on record as -30% and the “Curve Class” value is -1.2. Besides, the IC50 (Malaria Box, read-out: IC50) amounted to 0.59 µM.
Take `CCCCOC(=O)c1ccc(Nc2cc(C)nc3ccc(OC)cc23)cc1` [MMV665797]: where the note is “Malaria Box”, the “Max Resp” value is reported as -47%, the “Curve Class” value is on record as -2.2 and the IC50 result was “Inactive”.
On to `O=C(Nc1ccc(N2CCN(Cc3ccccc3)CC2)cc1)c1cccs1.O=C(O)C(F)(F)F` [MMV019670], for which, for the setting “Malaria Box”, the “Max Resp” value came out at 13%, the “Curve Class” value was found to be 4 and the IC50 entry is “Inactive”.
For `COc1cc(-c2nc(-c3ccccc3)c(-c3ccccc3)[nH]2)cc(OC)c1O` [MMV020750], where the note is “Malaria Box”, the “Max Resp” value was -55% and the “Curve Class” value is on record as -2.2. Also, under “Malaria Box, read-out: IC50”, the IC50 was 37.2 µM.
With `COc1ccc(C(=O)Nc2ccc(Cl)cc2C(=O)Nc2ccncc2)cc1` [MMV665799], where the note is “Malaria Box”, the “Max Resp” value is recorded as -28%, the “Curve Class” value turned out to be 4 and the concentration for half-maximal inhibition (IC50) result is recorded as “Inactive”.
With `CN(C)CCCNCc1ccc(-c2ccc(F)c(Cl)c2)o1.Cl` [MMV020505], for the setting “Malaria Box”, the “Max Resp” value was -98% and the “Curve Class” value is -1.1. In addition, the IC50 (Malaria Box, read-out: IC50) amounted to 3.32 µM.
The corresponding values for `Cc1cc(N(C)C)nc(Nc2ccc(NC(=O)Nc3ccccc3)cc2)n1` [MMV020243] are -73%, -2.2 and 11.8 µM.
For `COc1cccc(NC(=O)[C@H](C(C)C)n2c(=O)[nH]c3ccccc3c2=O)c1` [MMV665878], for the setting “Malaria Box”, the “Max Resp” value is given as -82% and the “Curve Class” value is recorded as -1.1. Besides, under “Malaria Box, read-out: IC50”, the IC50 turned out to be 2.64 µM.
Consider `COc1ccc(-n2ccnc2SCC(=O)Nc2cc(C)ccc2C)c(OC)c1` [MMV019258], for which, for the setting “Malaria Box”, the “Max Resp” value is on record as -8%, the “Curve Class” value is 4 and the IC50 result is reported as “Inactive”.
The corresponding values for `CCC(c1ccccc1)c1nn2c(-c3cccs3)nnc2s1` (stereo not drawn) [MMV665876] are -47%, -2.2 and “Inactive”.
As to `CCOC(=O)C1CCN(C(=O)CN2C(=O)c3ccccc3C2c2c[nH]c3ccccc23)CC1` (stereo not drawn) [MMV011576], where the note is “Malaria Box”, the “Max Resp” value was -98% and the “Curve Class” value is reported as -1.1. In addition, the IC50 (Malaria Box, read-out: IC50) was determined as 3.72 µM.
The corresponding values for `COc1cccc(Nc2nc(N)c3ccccc3n2)c1.Cl` [MMV019199] are -66%, -2.2 and 23.5 µM.
For the compound `Cc1cc(NC(=O)c2ccc(-c3ccccc3)cc2)no1` [MMV018984], where the note is “Malaria Box”, the “Max Resp” value stood at 14%, the “Curve Class” value is 4 and the IC50 entry is “Inactive”.
`CC(=O)NCCc1nc2ccccc2n1Cc1ccc(C(C)C)cc1` [MMV007617]: for the setting “Malaria Box”, the “Max Resp” value is -70% and the “Curve Class” value is given as -2.2. For the same compound, for the setting “Malaria Box, read-out: IC50”, the IC50 came out at 23.5 µM.
For the compound `CN1CCN(c2c3c(c(C#N)c4nc5ccccc5n24)CCC3)CC1` [MMV008127], where the note is “Malaria Box”, the “Max Resp” value is listed as -5%, the “Curve Class” value was 4 and the IC50 result was “Inactive”.
Take `CCOc1c(Br)cc(C2C(C(=O)OC)=CN(C)C=C2C(=O)OC)cc1OC` [MMV006764]: under “Malaria Box”, the “Max Resp” value is -76% and the “Curve Class” value is listed as -2.2. In addition, the IC50 (Malaria Box, read-out: IC50) is 14.8 µM.
Regarding `COCCNC(=O)c1ccc(OC2CCN(Cc3ccc(F)c(F)c3)CC2)c(Cl)c1` [MMV666072], under “Malaria Box”, the “Max Resp” value was 12%, the “Curve Class” value was found to be 4 and the IC50 result is given as “Inactive”.
The corresponding values for `CCOC(=O)c1cnc2ccc(Cl)cc2c1NCCCN(C)C` [MMV006882] are -43%, -2.2 and “Inactive”.
Turning to `CN(C)c1ccc(C(O)(c2ccc(N(C)C)cc2)c2ccc(N(C)C)cc2)cc1` [MMV665941], where the note is “Malaria Box”, the “Max Resp” value is on record as -118% and the “Curve Class” value was -1.1. For the same compound, the IC50 (Plasmodium falciparum, 3D7, Malaria Box, read-out: IC50) was determined as 5.9 µM.
`CCOC(=O)c1cnc2ccc(OC)cc2c1NCc1ccccc1` [MMV665813]: under “Malaria Box”, the “Max Resp” value was -14%, the “Curve Class” value came to 4 and the IC50 result was “Inactive”.
The corresponding values for `Cc1cc(C=C2SC(=Nc3ccccc3)N(C3CCCC3)C2=O)c(C)n1-c1ccc(Cl)cc1` [MMV666688] are -20%, 4 and “Inactive”.
On to `CCOc1cc2c(cc1OCC)C(c1cc(Cl)c(O)c(OCC)c1)NCC2` (stereo not drawn) [MMV000481], for which, where the note is “Malaria Box”, the “Max Resp” value is recorded as -81% and the “Curve Class” value is on record as -1.1. Further, the IC50 (Malaria Box, read-out: IC50) was 5.26 µM.
Consider `O=C(Cc1ccccc1)NC(c1ccc(Cl)cc1)c1c(O)ccc2ccccc12` (stereo not drawn) [MMV665972], for which, under “Malaria Box”, the “Max Resp” value is given as -62% and the “Curve Class” value was -2.2. In addition, where the note is “Malaria Box, read-out: IC50”, the IC50 was 29.6 µM.
As to `Oc1ccccc1CN1CCC2(CCCN(Cc3ccccc3F)C2)C1` (stereo not drawn) [MMV666116], for the setting “Malaria Box”, the “Max Resp” value is -46% and the “Curve Class” value was -1.2. Where the note is “Malaria Box, read-out: IC50”, the IC50 was determined as 0.662 µM.
The corresponding values for `CCCCNCC(O)(c1ccc(Cl)cc1)c1ccc(Cl)cc1` [MMV665929] are -73%, -1.2 and 2.96 µM.
The corresponding values for `OC(CNC1CCCCC1)Cn1c2ccccc2c2ccccc21` (stereo not drawn) [MMV009063] are -99%, -1.1 and 2.35 µM.
The corresponding values for `CC(C)CCNCC(O)Cn1c2ccccc2c2ccccc21.Cl` (stereo not drawn) [MMV006787] are -94%, -1.1 and 2.64 µM.
Consider `CCCc1c(C)nc2ccccc2c1O` [MMV666081], for which, for the setting “Malaria Box”, the “Max Resp” value was determined as 23%, the “Curve Class” value is listed as 4 and the IC50 result is “Inactive”.
As to `CCOC(=O)C1=C(C)N=c2sc(=Cc3ccccc3O)c(=O)n2C1c1ccc(OC)c2ccccc12` (stereo not drawn) [MMV666604], under “Malaria Box”, the “Max Resp” value is reported as -68% and the “Curve Class” value is -1.2. For the same compound, under “Malaria Box, read-out: IC50”, the IC50 is 7.43 µM.
For the compound `Br.CCn1c2c(c(=N)c3c1CCC3)CCCC2` [MMV000340], for the setting “Malaria Box”, the “Max Resp” value is recorded as -49%, the “Curve Class” value is recorded as -2.2 and the IC50 result is listed as “Inactive”.
Turning to `Cc1ccc(Nc2nc(-c3ccccn3)cs2)cc1` [MMV007907], under “Malaria Box”, the “Max Resp” value was -73% and the “Curve Class” value is reported as -2.2. Besides, the IC50 (Malaria Box, read-out: IC50) was 7.43 µM.
In the case of `CCCCc1c(C)nc2c(OC)cccc2c1O` [MMV006820], for the setting “Malaria Box”, the “Max Resp” value was found to be 24%, the “Curve Class” value turned out to be 4 and the IC50 result is recorded as “Inactive”.
With `COc1ccc2c(c1)OC(O)(C(F)(F)C(F)(F)F)CC2=O` (stereo not drawn) [MMV007839], for the setting “Malaria Box”, the “Max Resp” value is reported as -23%, the “Curve Class” value was found to be 4 and the IC50 entry is reported as “Inactive”.
Regarding `FC(F)(F)c1cccc(CNC2CCN(CCc3ccccc3)CC2)c1` [MMV665979], for the setting “Malaria Box”, the “Max Resp” value is given as -89% and the “Curve Class” value is listed as -2.1. Besides, the IC50 (Malaria Box, read-out: IC50) was determined as 14.8 µM.
For `COc1ccc(-c2cc3c(SCC(=O)Nc4cc(C(F)(F)F)ccc4Cl)nccn3n2)cc1` [MMV396679], under “Malaria Box”, the “Max Resp” value stood at 0%, the “Curve Class” value is on record as 4 and the IC50 entry was “Inactive”.
The corresponding values for `CCOC(=O)c1cn(CC)c2cc(N(C)CCc3ccc(OC)c(OC)c3)c(F)cc2c1=O` [MMV665977] are 2%, 4 and “Inactive”.
In the case of `O=C(CCc1ccccc1)c1ccccc1OCC(O)CN1CCCCC1` (stereo not drawn) [MMV009015], where the note is “Malaria Box”, the “Max Resp” value was -74% and the “Curve Class” value was -2.2. For the same compound, the IC50 (Malaria Box, read-out: IC50) was 7.43 µM.
With `COc1ccc(C(=O)NC(c2ccc(Cl)cc2Cl)c2cc(Cl)c3cccnc3c2O)cc1` (stereo not drawn) [MMV666054], where the note is “Malaria Box”, the “Max Resp” value is -125% and the “Curve Class” value is reported as -2.1. Moreover, the IC50 (Malaria Box, read-out: IC50) was 16.6 µM.
The corresponding values for `Oc1ccc2ccccc2c1CNc1nc2ccccc2[nH]1` [MMV011832] are -67%, -2.2 and 29.6 µM.
Take `Cl.Clc1cc(Br)ccc1-c1ccc(CNCC2CCNCC2)o1` [MMV019918]: under “Malaria Box”, the “Max Resp” value is reported as -106% and the “Curve Class” value is given as -1.1. For the setting “Malaria Box, read-out: IC50”, the IC50 was determined as 1.87 µM.
Turning to `CC1CC(C)CN(C(=O)c2ccc(Cl)cc2Cl)C1` (stereo not drawn) [MMV001344], under “Malaria Box”, the “Max Resp” value was -13%, the “Curve Class” value was 4 and the IC50 entry is “Inactive”.
As to `Cl.c1ccc2c(NCCCCCCNc3c4c(nc5ccccc35)CCCC4)c3c(nc2c1)CCCC3` [MMV019555], under “Malaria Box”, the “Max Resp” value was -104% and the “Curve Class” value is on record as -1.1. Also, the IC50 (Malaria Box, read-out: IC50) came out at 4.69 µM.
The corresponding values for `O=C(Nc1ccc(Cl)cc1C(=O)Nc1ccncc1)c1ccc(Cl)cc1Cl` [MMV666057] are -57%, -2.2 and 29.6 µM.
For the compound `Cc1cc(C)cc(Nc2cc(C)nc3nc(C(F)(F)F)nn23)c1` [MMV011259], where the note is “Malaria Box”, the “Max Resp” value is on record as 4%, the “Curve Class” value was determined as 4 and the IC50 result was “Inactive”.
As to `Cc1ccc2c(C)nc(Nc3nc(C)cc(-c4ccccc4)n3)nc2c1` [MMV007041], where the note is “Malaria Box”, the “Max Resp” value is listed as -50%, the “Curve Class” value is on record as -2.2 and the IC50 result is “Inactive”.
The corresponding values for `O=C(NC1CCN(Cc2ccccc2)CC1)c1cc2nc(-c3ccc(Cl)s3)cc(C(F)(F)F)n2n1` [MMV396635] are -24%, 4 and “Inactive”.
The corresponding values for `COc1cccc(Cn2c(Oc3ccccc3)nc3c2c(=O)n(C)c(=O)n3C)c1` [MMV396705] are -1%, 4 and “Inactive”.
